Source: PMC10746280, “Bacterial efflux pump modulators prevent bacterial growth in macrophages and under broth conditions that mimic the host environment” (mBio, 2023)

Tests used:
[1] = test system: RAW 264.7 macrophages; assay: SAFIRE macrophage assay: host toxicity (adherent macrophage count, morphology); format: cell-based
Source text: (§1) In SAFIRE, we used MATLAB software to count the number of macrophages that remain adherent and retain the red fluorescence of MitoTracker, an indicator of voltage across the mitochondrial inner membrane. MATLAB then calculates the signal from bacteria (green fluorescent protein [GFP]) that overlaps with macrophages, as defined by MitoTracker, to estimate bacterial load. […] For example, we observed that the 6-trifluoropyrimidin-2-yl group on the right-hand side of EPM35 is apparently toxic to macrophages. Non-toxic analogs that reduced bacterial load by at least 60% at 5 µM and 25 µM in SAFIRE, as compared with DMSO, progressed and were evaluated in SAFIRE across eight or more concentrations, ranging from 0.001 µM to 50 µM (n = 2). […] Each of the top 13 analogs had at least an eightfold increase in potency and were not toxic for macrophages at 50 µM in the SAFIRE assay (Fig. 1C).
(§2) As previously described ([18]), RAW 264.7 macrophages (between passages 1 and 6) were grown in complete Dulbecco’s modified Eagle’s medium (DMEM) to approximately 70% to 90% confluence, scraped, washed, resuspended, diluted to 5 × 10^4 in 100 µL, and seeded in black, 96-well, glass-bottomed plates (Brooks Life Sciences catalog number MGB096-1-2-LG-L) at 37°C with 5% CO2. Twenty-four hours later, bacteria grown overnight in LB were diluted into 50 µL phosphate buffered saline (PBS) and added to a final concentration of 1 × 10^7 S. Typhimurium SL1344 (sifB::gfp) per milliliter ([78]) for an approximate multiplicity of infection of 30 bacteria per macrophage cell. Forty-five minutes after bacterial addition, gentamicin (Sigma catalog number G1264) was added to a final concentration of 40 µg/mL to inhibit the growth of remaining extracellular bacteria. Two hours after infection, gentamicin-containing medium was removed and replaced with 200 µL fresh DMEM with compound or DMSO (Sigma catalog number 276855) to the stated final concentrations. At 17.5 h after infection, PBS containing MitoTracker Red CMXRos (Life Technologies catalog number M7512), a vital dye for mitochondrial electric potential, was added to a final concentration of 100 nM. At 18 h after infection, 16% paraformaldehyde was added to a final concentration of 4% and incubated at room temperature for 15 min. Cells were washed twice with PBS and stained for 20 min with 1 µM 4′,6-diamidino-2-phenylindole (DAPI), a vital dye for double-stranded DNA, and stored in 90% glycerol in PBS until imaging. Samples were imaged in six fields of view per well using a semiautomated Yokogawa CellVoyager CV1000 confocal scanner system with a 20×, 0.75-numerical aperture (NA) objective. A MATLAB algorithm calculated bacterial accumulation (GFP fluorescence) within macrophages, as defined by DAPI and MitoTracker Red. GFP^+ macrophage area was defined as the number of GFP-positive pixels per macrophage divided by the total number of pixels per macrophage, averaged across all macrophages in the field ([34]).

[2] = test system: S. Typhimurium SL1344 (sifB::gfp) in RAW 264.7 macrophages; assay: SAFIRE macrophage assay: intracellular bacterial load (GFP signal within macrophages); format: cell-based, Salmonella enterica serotype Typhimurium; details: for IC50: Salmonella enterica, TYPHIMURIUM, RAW264.7, read-out: SAFIRE IC50
Source text: as §1, §2

[3] = 5 uM compound, n=1, DMSO solvent control = 100
[4] = 25 uM compound, n=1, DMSO solvent control = 100
[5] = 5 uM compound, n=1, DMSO solvent control = 98, rifampicin 2 μg/mL = 65
[6] = 25 uM compound, n=1, DMSO solvent control = 98, rifampicin 2 μg/mL = 65
[7] = 5 uM, 'Toxic' given instead of a score
[8] = 25 uM, 'Toxic' given instead of a score

Row | Compound | 5 uM Avg Cell # Score [1, 3] | 25 uM Avg Cell # Score [1, 4] | 5 uM Avg Antibacterial Score [2, 5] | 25 uM Avg Antibacterial Score [2, 6] | 5 uM Avg Cell # Score ([1]; 5 uM) | 25 uM Avg Cell # Score ([1]; 25 uM) | 5 uM Avg Antibacterial Score [2, 7] | 25 uM Avg Antibacterial Score [2, 8] | IC50 [2]
1 | CC1(N)CCN(CC(O)COc2cc(Cl)cc(Cl)c2)CC1 (stereo not drawn) [CU243] | 129 | 90 | 21 | 12 | – | – | – | – | –
2 | NC1CCCN(CC(O)COc2cc(Cl)cc(Cl)c2)CC1 (stereo not drawn) [CU231] | 112 | 19 | 22 | Toxic | – | – | – | – | –
3 | OC(COc1cccc(C(F)(F)F)c1)CN1CCC(Nc2nccc(C(F)(F)F)n2)C1 (stereo not drawn) [CU092] | – | – | – | – | 86 | 72 | 41 | Toxic | –
4 | OC(COc1ccc(F)cc1)CN1CCC(Nc2nccc(C(F)(F)F)n2)CC1 (stereo not drawn) [CU037] | – | – | – | – | 74 | 117 | 106 | 23 | –
5 | OC(CNCCNc1nccc(C(F)(F)F)n1)COc1ccc(Cl)c(Cl)c1 (stereo not drawn) [CU070] | – | – | – | – | 49 | 65 | Toxic | Toxic | –
6 | OC(COc1ccc(Cl)c(Cl)c1)CN1Cc2ccccc2C1 (stereo not drawn) [CU136] | – | – | – | – | 83 | 63 | 102 | 60 | –
7 | OC(COc1cccc2[nH]ccc12)CN1CCC(Nc2nccc(C(F)(F)F)n2)CC1 (stereo not drawn) [CU116] | – | – | – | – | 99 | 94 | 90 | 6.41 | –
8 | Cc1noc(CN(C)CC(O)COc2ccc(Cl)c(Cl)c2)n1 (stereo not drawn) [CU131] | – | – | – | – | 88 | 80 | 101 | 86 | –
9 | NCCC1CCN(CC(O)COc2cc(Cl)cc(Cl)c2)C1 (stereo not drawn) [CU252] | 114 | 117 | 98 | 77 | – | – | – | – | –
10 | O=C(CCOc1ccc(Cl)c(Cl)c1)N1CCC(Nc2nccc(C(F)(F)F)n2)CC1 [CU110] | – | – | – | – | 79 | 27 | 107 | Toxic | –
11 | COCC1CCCN1CC(O)COc1ccc(Cl)c(Cl)c1 (stereo not drawn) [CU128] | – | – | – | – | 85 | 85 | 98 | 32 | –
12 | NC1CCN(CC(O)COc2c(Cl)cccc2Cl)CC1 (stereo not drawn) [CU192] | – | – | – | – | 96 | 92 | 52 | 30 | 6.9 nM
13 | COc1ccc(OCC(O)CN2CCC(Nc3nccs3)CC2)cc1 (stereo not drawn) [CU054] | – | – | – | – | 98 | 96 | 91 | 74 | –
14 | OC(COc1ccc(Cl)cc1)CN1CCC(NC2CC2)C1 (stereo not drawn) [CU140] | – | – | – | – | 122 | 130 | 87 | 73 | –
15 | OC(COc1ccc(Cl)cc1)CN1CCC(Nc2ncccn2)CC1 (stereo not drawn) [CU044] | – | – | – | – | 84 | 100 | 91 | 36 | –
16 | OC(COc1ccc(Cl)c(Cl)c1)CN1CCC2(CCOCC2)C1 (stereo not drawn) [CU129] | – | – | – | – | 100 | 88 | 95 | 39 | –
17 | O=C(O)C1CCN(CC(O)COc2ccc(Cl)c(Cl)c2)CC1 (stereo not drawn) [CU073] | – | – | – | – | 100 | 140 | 102 | 101 | –
18 | OC(COc1c(Cl)cccc1Cl)CN1CCC(Nc2nccc(C(F)(F)F)n2)CC1 (stereo not drawn) [CU109] | – | – | – | – | 74 | 44 | 56 | Toxic | –
19 | NCCC1CCN(CC(O)COc2ccc(Cl)c(Cl)c2)C1 (stereo not drawn) [CU251] | 108 | 101 | 100 | 103 | – | – | – | – | –
20 | OC(COc1ccc(Cl)c(Cl)c1)CN1CCC(N2CCOCC2)CC1 (stereo not drawn) [CU185] | – | – | – | – | 120 | 125 | 87 | 76 | –
21 | OC(COc1ccccc1)CN1CCC(Nc2ncccn2)CC1 (stereo not drawn) [CU043] | – | – | – | – | 69 | 107 | 106 | 81 | –
22 | OC(COc1ccc(Cl)cc1Br)CN1CCC(Nc2nccc(C(F)(F)F)n2)CC1 (stereo not drawn) [CU120] | – | – | – | – | 74 | 46 | 13 | Toxic | –
23 | OC(COc1ccc(Cl)c(Cl)c1)CN1CCCN(c2nccc(C(F)(F)F)n2)CC1 (stereo not drawn) [CU055] | – | – | – | – | 77 | 99 | Toxic | Toxic | –
24 | OC(COc1ccc(Cl)c(Cl)c1)CN1CCC(n2ccnc2)CC1 (stereo not drawn) [CU179] | – | – | – | – | 98 | 91 | 36 | 19 | 45 nM
25 | NC1CCN(CC(O)COc2ccccc2)C1 (stereo not drawn) [CU151] | – | – | – | – | 128 | 147 | 108 | 91 | –
26 | O=C1OC(COc2ccc(Cl)c(Cl)c2)CN1c1ccc(N2CCOCC2)cc1 (stereo not drawn) [CU195] | – | – | – | – | 114 | 82 | 107 | 103 | –
27 | NC1CCCN(CC(O)COc2ccc(Cl)c(Cl)c2)C1 (stereo not drawn) [CU144] | – | – | – | – | 99 | 105 | 63 | 29 | –
28 | OC(COc1ccc(Cl)c(Cl)c1)CN1CCC(Nc2nccc(C(F)(F)F)n2)C1 (stereo not drawn) [CU089] | – | – | – | – | 101 | 91 | 30 | Toxic | –
